Results: patent US20150219624A1, “METHODS FOR IDENTIFYING ANTI-CANCER COMPOUNDS” (MEMORIAL SLOAN KETTERING CANCER CENTER, priority 2013, published 2015)

How the values were obtained:
PANC-1 = test: Silvestrol sensitivity and KRAS protein levels in PANC-1; type: cell-based
Excerpt: KRAS has a long T1/2 compared to MYC, and therefore the effect is less pronounced. The in vitro activity of an S6 kinase inhibitor, rapamycin, silvestrol and combinations on PNAC1 and MiaPaca2 cells are shown in FIGS. 24B and 24C, respectively.

KOPTK1 cells [1] = test: Polysome profiling; type: cell-based, human; conditions: 25 nM, 45 minutes
Method: Polysome profiling. KOPTK1 cells were treated with silvestrol or DMSO for 45 minutes, followed by cycloheximide treatment for 10 minutes. Cell pellet was lysed in polysome lysis buffer (300 mM NaCl, 15 mM Tris-HCl (pH 7.5), 15 mM MgCl2, 1% TritonX-100, 0.1 mg/ml Cycloheximide, 1 mg/ml Heparin). Polysome fractions were isolated using 4 ml 10-50% sucrose density gradients (300 mM NaCl, 100 mM MgCl2, 15 mM Tris-HCl (pH 7.5), 1 mg/ml Cycloheximide, 10 mg/ml Heparin). Gradients were centrifuged in an SW40Ti rotor at 35,000 rpm for 2 hrs. Fractions of 100 ul were collected manually from the top, and optical density (OD) at […] was measured.
FIG. 10 depicts ribosome profiling quality control data and effects on translation. A and B) Read counts by length of mapped sequence before and after filtering rRNA, linker reads, non-coding RNAs, short mapped sequences (“noisy” reads; see text and method for details). C and D) Read length frequency histograms and mapping analysis of ribosome footprint data after quality control filtering for vehicle treated cells (C) or silvestrol treated cells (D). […] F) Histogram of all genes' ribosome footprint intensity (measured as unique read number per million per gene, RPM) for silvestrol and vehicle treated cells indicating silvestrol affected mRNAs were broadly distributed (see text for details). […]

GQ construct = test: Luciferase reporter with four 12-mer motifs (GQs) vs random control 5'UTR; type: cell-based; conditions: 25 nM, 24 hours
Method: Luciferase assays. Four tandem repeats of the (CGG)4 12-mer motif (GQs) or random sequence matched for length and GC content (random) were cloned into the 5′UTR of Renilla luciferase plasmid pGL4.73. Empty firefly luciferase plasmid pGL4.13 or HCV-IRES firefly were used as internal controls. Luciferase assays were performed using Dual-Luciferase Reporter Assay System (Promega E1960) following the manufacturer's instructions. GQs sequence:
Next, directly testing the translational effect of the 12-mer sequence motif was sought. Briefly, a luciferase reporter system was constructed to directly compare four 12-mer motifs in tandem reflecting the common occurrence of multiple motifs in sensitive mRNAs (GQ construct) to a random sequence of equal length and GC content (control construct) and using an IRES-driven firefly luciferase as an internal control (FIG. 4E). […] The RNA helicases DHX9 and DHX36 have been implicated in resolving G-quadruplex structures (Booy et al., 2012; Chakraborty and Grosse, 2011), however predominant expression was found of eIF4A in T-ALL (FIG. 4G) (Van Vlierberghe et al., 2011). Further direct testing was done of the effect of RNAi-mediated eIF4A knockdown in the same assay and a striking decrease in the translation from the GQ reporter observed, with little effect on the control sequence (FIG. 4H/I). […]

KOPTK1 cells [2] = test: Metabolic labeling of nascent protein with L-azidohomoalanine (AHA); type: cell-based, human; conditions: 25 nM; p vs. vehicle 3.6×10−3
Method: (Non-radioactive) Metabolic labeling of nascent protein. KOPTK1 cells were labeled for nascent protein synthesis using Click-iTR AHA (L-azidohomoalanine) metabolic labeling reagent obtained from Invitrogen (cat no. C10102) as per manufacturer's instructions. Briefly, following silvestrol, Cycloheximide or DMSO treated cells were incubated in methionine free medium for 30 min prior to AHA labeling for 1 hr. Cells were fixed with 4% paraformaldehyde in PBS for 15 min, permeablized with 0.25% Triton X-100 in PBS for 15 min followed by one wash with 3% BSA. Cells were then stained using Alexa Fluor 488 Alkyne (Invitrogen cat no. A10267) with Click-iT Cell reaction Buffer Kit (Invitrogen cat no. C10269). Changes in mean fluorescence intensity as a measure of newly synthesized protein was detected by Flow cytometry analysis.
The number of ribosomes occupying a given transcript is given as gene specific RF reads per one million total reads (RPM).
FIG. 10 depicts ribosome profiling quality control data and effects on translation. A and B) Read counts by length of mapped sequence before and after filtering rRNA, linker reads, non-coding RNAs, short mapped sequences (“noisy” reads; see text and method for details). C and D) Read length frequency histograms and mapping analysis of ribosome footprint data after quality control filtering for vehicle treated cells (C) or silvestrol treated cells (D). […]

In the case of COC(=O)[C@H]1[C@@H](O)[C@@]2(O)c3c(OC)cc(O[C@@H]4O[C@@H]([C@H](O)CO)CO[C@H]4OC)cc3O[C@@]2(c2ccc(OC)cc2)[C@@H]1c1ccccc1 [silvestrol], the KRAS expression (PANC-1; PANC1 cells, 50 nM) is reported as “loss of KRAS expression”, the KRAS expression (PANC-1; PANC-1, 20 nM) is reported as “loss of KRAS expression” and the “polyribosome bound RNA (fractions 30-40)” value (KOPTK1 cells [1]) is reported as “loss of polyribosome bound RNA”. For the same compound, the “translation of the GQ construct” value (GQ construct; normalized to IRES firefly) was “reduced the translation”, the “translation of the control luciferase” value (GQ construct; random sequence control construct) was “did not reduce the translation” and the “max. reduction of nascent protein synthesis (AHA labeling)” value (KOPTK1 cells [2]) was ~60%.
